Reference: ChEMBL document CHEMBL3638956, “Tetrahydro-pyrazolo[1,5-a]pyrido-pyrimidines as antagonists of serotonin 5-HT6 receptors, methods for the production and use thereof” (2013)

Molecular target: 5-hydroxytryptamine receptor 6 (Homo sapiens, UniProt P50406)
Assay: Competitive Binding Assay: Activity test of serotonin 5-HT6 receptor antagonists of the general formulas 1, 2 in the setting of competitive binding to serotonin 5-HT6 receptors.

Sequence of 5-hydroxytryptamine receptor 6 (P50406 whole entry): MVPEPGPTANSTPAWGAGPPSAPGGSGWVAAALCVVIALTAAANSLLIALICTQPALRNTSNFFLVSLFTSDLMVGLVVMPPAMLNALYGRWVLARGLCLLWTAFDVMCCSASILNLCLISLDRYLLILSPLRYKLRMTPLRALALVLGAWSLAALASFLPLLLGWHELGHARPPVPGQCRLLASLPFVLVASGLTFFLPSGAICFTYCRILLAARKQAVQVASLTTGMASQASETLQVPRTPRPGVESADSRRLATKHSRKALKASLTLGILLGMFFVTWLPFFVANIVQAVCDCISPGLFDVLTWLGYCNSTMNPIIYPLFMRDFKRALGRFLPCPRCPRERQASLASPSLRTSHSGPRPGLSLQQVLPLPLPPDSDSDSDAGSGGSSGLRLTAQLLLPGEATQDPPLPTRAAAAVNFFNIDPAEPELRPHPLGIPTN

IC50 [nM] | Ki [nM] | SMILES
13 | – | Cc1nn2c3c(cnc2c1S(=O)(=O)c1ccccc1)CN(C)CC3
76.9 | 35.7 | CSc1nn2c3c(cnc2c1S(=O)(=O)c1ccccc1)CN(C)CC3
– | 2.14 | Cc1nn2c3c(cnc2c1S(=O)(=O)c1ccccc1)CNCC3
16.6 | 7.7 | CSc1nn2c3c(c(C)nc2c1S(=O)(=O)c1ccccc1)CNCC3
